Earlier results in patent US20050260263A1, “Sustained release formulation for sparingly soluble main drugs” (Panion & BF Biotech Inc., priority 2004, published 2005).
Read-outs that look alike come from different tables or passages of the source.

Row | Solubility (water) | Solubility (gastric fluid) | Solubility (region of the lower intestine (pH 6 to 8)) | Solubility (upper region of the small intestine (pH 5.0)) | Structure (SMILES)
1 | only slightly soluble |  |  |  | CC[C@H]1OC(=O)[C@H](C)[C@@H](O[C@H]2C[C@@](C)(OC)[C@@H](O)[C@H](C)O2)[C@H](C)[C@@H](O[C@@H]2O[C@H](C)C[C@H](N(C)C)[C@H]2O)[C@](C)(O)C[C@@H](C)C(=O)[C@H](C)[C@@H](O)[C@]1(C)O [Erythromycin]
2 |  | very soluble | poorly soluble | fairly soluble | CC[C@H]1OC(=O)[C@H](C)[C@@H](O[C@H]2C[C@@](C)(OC)[C@@H](O)[C@H](C)O2)[C@H](C)[C@@H](O[C@@H]2O[C@H](C)C[C@H](N(C)C)[C@H]2O)[C@](C)(OC)C[C@@H](C)C(=O)[C@H](C)[C@@H](O)[C@]1(C)O [clarithromycin]
